Reference: patent US12459914B2, “Compounds and compositions for the treatment of tumors” (FONDAZIONE ISTITUTO ITALIANO DI TECNOLOGIA, priority 2019, dated 2025)
Read-outs that look alike come from different tables or passages of the source.

Tests used:
[1] = system: Homologous recombination (HR) in BxPC3 cells; assay: Homologous recombination assay (HR); type: cell-based; conditions: Homo sapiens, BXPC-3, read-out: HR inhibition: IC50
Protocol: Homologous recombination (HR) was assessed by using a commercially available assay (Norgen). This assay is based on cell co-transfection with two plasmids that, upon cells entering, recombinate. The efficiency of HR can be assessed by real time PCR, using primer mixtures included in the assay kit. Different primer mixtures allow differentiation between the original plasmid backbones and their recombination product.
BxPC3 cells (2×10^3 per well) were seeded in a 24-well plate and allowed to adhere overnight. Co-transfection with the two plasmids was performed in Lipofectamine 2000 (Invitrogen) for 5 h, according to the manufacturer's instructions. During transfection cells were exposed at different doses of BRCA2-Rad51 disruptors, dissolved in RPMI without serum in the presence of 0.6% DMSO.
After washing with PBS, cells were harvested, and DNA was isolated using QIAamp® DNA Mini Kit (Qiagen). Sample concentration was measured using an ONDA Nano Genius photometer.
The thermal cycler (CFX96 ™ Real Time System, BioRad) was programmed as follows: initial denaturation 95° C. for 3 min then 95° C. for 15 sec., 61° C. for 30 sec., 72° C. for 1 min and repeated for 40 cycles. Melt curve analysis was done. Samples were run in triplicate, in 10 μl reaction volume containing 25 ng of template.
In each DNA sample from control and treated cultures, the ΔCt between the recombination product and the backbone plasmids was calculated. HR efficiency was evaluated from the 2^−ΔΔ^Ct value obtained by comparing treated vs control samples.

[2] = Pharmacokinetic studies in mice, plasma levels by LC/MS-MS; type: in vivo, C57B6/J mice; conditions: for half-life: read-out: t1/2 (calc)
Protocol: Male C57B6/J mice, 8 weeks old were used (Charles River). All procedures were performed in accordance with the Ethical Guidelines of European Communities Council (Directive 2010/63/EU of 22 Sep. 2010) and accepted by the Italian Ministry of Health. All efforts were made to minimize animal suffering and to use the minimal number of animals required to produce reliable results, according to the “3Rs concept”. Animals were group-housed in ventilated cages and had free access to food and water. They were maintained under a 12-hour light/dark cycle (lights on at 8:00 am) at controlled temperature (21° C.±1° C.) and relative humidity (55%±10%).
Compound d.12 was administered orally (PO), intraperitoneally (IP) and intravenously (IV) to C57B6/J male mice at 2 mg/kg/10 ml, 20 mg/kg/10 ml and 2 mg/kg/5 ml, respectively. Vehicle was composed by PEG400/Tween 80/Saline solution at 10/10/80% in volume, respectively for PO and IV administration. For IP administration, the same vehicle was used with the addition of 10% DMSO in final volume. Three animals per dose were treated. Blood samples at 0, 15, 30, 60, 120, 240, and 480 min after administration were collected for PO and IP arms. Blood samples at 0, 5, 15, 30, 60, 120 and 240 min after administration were collected for IV arm. Plasma was separated from blood by centrifugation for 15 min at 1500 rpm a 4° C., collected in a eppendorf tube and frozen (−80° C.). Control animals treated with vehicle only were also included in the experimental protocol.
Plasma samples were centrifuged at 21.100×g for 15 min at 4° C. An aliquot of each plasma sample was extracted (1:3) with cold CH3CN containing 200 nM of d.48 as internal standard being a close analogue of the parent compound. A calibration curve was prepared in naïve mouse plasma over a 1 nM-10 μM range. Three quality control samples were prepared by spiking the parent compound in naïve mouse plasma to 20, 200 and 2000 nM as final concentrations. The calibrators and quality control samples were extracted (1:3) with the same extraction solution as the plasma samples. The plasma samples, calibrators and quality control samples were centrifuged at 3.270×g for 15 min at 4° C. The supernatants were further diluted (1:1) with H2O, and analyzed by LC/MS-MS on a Waters ACQUITY UPLC/MS TQD system consisting of a Triple Quadrupole Detector (TQD) Mass Spectrometer equipped with an Electrospray Ionization interface and a Photodiode Array e, Detector from Waters Inc. (Milford, MA, USA). Electrospray ionization was applied in positive mode. Compound-dependent parameters as MRM transitions and collision energy were developed for the parent compound and the internal standard. The analyses were run on an ACQUITY UPLC BEH C18 (50×2.1 mmID, particle size 1.7 μm) with a VanGuard BEH C18 pre-column (5×2.1 mmID, particle size 1.7 μm) at 40° C., using H2O+0.1% HCOOH (A) and CH3CN+0.1% HCOOH (B) as mobile phase at 0.5 mL/min. A linear gradient was applied starting at 40% B with an initial hold for 0.2 min, then 40-100% B in 2 min, followed by a hold for 0.1 min at 100% B. All samples (plasma samples, calibrators and quality controls) were quantified by MRM peak area response factor in order to determine the levels of the parent compound in plasma. The plasma concentrations versus time were plotted and the profiles were fitted using PK Solutions Excel Application (Summit Research Service, USA) in order to determine the pharmacokinetic parameters. The results are reported in Tables 2 and 3 and in FIGS. 1, 2 and 3.

[3] = male, C57B6/J, mouse, plasma, mice, IP 20 mg/kg
[4] = male, C57B6/J, mouse, plasma, mice, IV 2 mg/kg
[5] = male, C57B6/J, mouse, plasma, mice, PO 2 mg/kg
[6] = male, C57B6/J, mouse plasma, IV 2 mg/kg, read-out: Average conc.
[7] = male, C57B6/J, mouse plasma, PO 2 mg/kg, read-out: Average conc.

CCC(=O)N1N=C(c2c(-c3ccccc3)c3cc(Cl)ccc3[nH]c2=O)CC1c1ccc(OC)cc1 (stereo not drawn) [d.12, 6-chloro-3-[3-(4-methoxyphenyl)-2-propanoyl-3,4-dihydropyrazol-5-yl]-4-phenyl-1H-quinolin-2-one]
IC50 [1]: 18.4 µM | AUC [2, 3]: 9280 ng·h/mL | Cmax [2, 3]: 5300 ng/mL | Tmax [2, 3]: 30 min | half-life [2, 3]: 175 min | AUC [2, 4]: 899 ng·h/mL | Cmax [2, 4]: 973 ng/mL | Tmax [2, 4]: 5 min | clearance ([2]; male, C57B6/J, mouse, plasma, mice, IV 2 mg/kg, read-out: CL (calc)): 33 mL/min/kg | Vd ([2]; male, C57B6/J, mouse, plasma, mice, IV 2 mg/kg, read-out: VD (calc)): 2.2 L/kg | half-life [2, 4]: 47 min | AUC [2, 5]: 100 ng·h/mL | Cmax [2, 5]: 76 ng/mL | Tmax [2, 5]: 30 min | half-life [2, 5]: 281 min | concentration at 5 min ([2]; male, C57B6/J, mouse plasma, IV 2 mg/kg, 5 min, read-out: Average conc.): 973 ng/mL | concentration at 15 min [2, 6]: 622 ng/mL | concentration at 30 min [2, 6]: 515 ng/mL | concentration at 60 min [2, 6]: 337 ng/mL | concentration at 120 min [2, 6]: 146 ng/mL | concentration at 240 min [2, 6]: 23 ng/mL | concentration at 0 min ([2]; male, C57B6/J, mouse plasma, PO 2 mg/kg, 0 min, read-out: Average conc.): 0 ng/mL | concentration at 15 min [2, 7]: 42 ng/mL | concentration at 30 min [2, 7]: 76 ng/mL | concentration at 60 min [2, 7]: 30 ng/mL | concentration at 120 min [2, 7]: 21 ng/mL | concentration at 240 min [2, 7]: 7 ng/mL | concentration at 480 min ([2]; male, C57B6/J, mouse plasma, PO 2 mg/kg, 480 min, read-out: Average conc.): 4 ng/mL | F ([2]; mice, 2 mg/kg): 11% | CL (calc) ([2]; mice, IP 20 mg/kg): 27 mL/min/kg | VD (calc) ([2]; mice, IP 20 mg/kg): 6.701 L/kg | CL (calc) ([2]; mice, PO 2 mg/kg): 222 mL/min/kg | VD (calc) ([2]; mice, PO 2 mg/kg): 90.009 L/kg
